Reference: paper PMC6008883, “Identification of Peptide Antagonists to Thioredoxin Glutathione Reductase of Schistosoma japonicum” (BioMed Research International, 2018)

Assays:
[1] = test system: Grx of SjTGR (thioredoxin glutathione reductase of Schistosoma japonicum); test: Inhibition of Grx activity of SjTGR; format: biochemical; conditions: phage clone, 10^11 pfu; SjTGR 48 nM; vs activity of SjTGR without phage; repeated three times; P<0.01 vs phage library for JIPDys1, JIPDys3
Protocol: (§1) To assess the inhibitory action of phages, the activities of TrxR, GR, and glutaredoxin (Grx) of SjTGR were assayed as described in [21]. 10 μl (10^14 pfu/ml) of phage solution was added to the reaction system, phage library was used as negative phage control, and the effect of phages on the activity of SjTGR was expressed as percentage inhibition: Inhibition percentage = (activity of SjTGR – activity of SjTGR with isolated phage)/activity of SjTGR. The experiment was repeated three times.
(§2) The activities of TrxR, GR, and Grx of SjTGR were assayed with different concentrations (0.5 μM, 1 μM, and 2 μM) of the synthesized peptide JIPDys1 to determine the 50% inhibitory concentration (IC50), and the same amount of PBS was added to the system as control. The experiment was repeated three times. The IC50 values were calculated by curve fitting using the SPSS 13.0 software.
(§3) All data are given as the mean ± standard deviation (SD). The activities of TrxR, GR, and Grx of SjTGR (absorbance/S (ΔA/S)) with JIPDys1, JIPDys2, JIPDys3, and JIPDys4 were statistically compared with the negative phage control (phage library) using two-tailed Student's t-tests. The activities of TrxR, GR, and Grx of SjTGR (absorbance/S (ΔA/S)) with the synthesized peptide were statistically compared with PBS control using two-tailed Student's t-tests, too. SPSS 13.0 was used for the statistical analyses. Differences between mean values were considered to be significant at the level of 5%.

[2] = test system: GR of SjTGR (thioredoxin glutathione reductase of Schistosoma japonicum); test: Inhibition of GR activity of SjTGR; format: biochemical; conditions: phage clone, 10^11 pfu; SjTGR 48 nM; vs activity of SjTGR without phage; repeated three times; P<0.01 vs phage library for JIPDys1, JIPDys2
Protocol: as §1, with “10 μl (10^14 pfu/ml) of phage solution was added to the reaction” left out
as §2, §3

[3] = test system: TrxR of SjTGR (thioredoxin glutathione reductase of Schistosoma japonicum); test: Inhibition of TrxR activity of SjTGR; format: biochemical; conditions: phage clone, 10^11 pfu; SjTGR 48 nM; vs activity of SjTGR without phage; repeated three times; P<0.01 vs phage library for JIPDys1, JIPDys2, JIPDys3
Protocol: as §1, with “[…],” for “10 μl (10^14 pfu/ml) of phage solution was added to the reaction system,”
as §2, §3

[4] = test system: SjTGR; test: Phage binding to recombinant SjTGR by ELISA; set-up: species or system Schistosoma japonicum; conditions: mean of triplicates; for Binding to SjTGR (ELISA OD450nm): phage 1×10^12 pfu/ml, HRP-conjugated anti-M13 antibody, TMB, positive if OD450nm 2.1 times above negative control, binding decreased with decreasing titers
Protocol: Phage clones were amplified according to the manual. A 96-well plate was coated with 100 μl of SjTGR solution (10 μg/ml, 0.1 M NaHCO3, pH 8.6) overnight at 4°C. After blocking with PBS containing 5% milk powder at rt for 1 h, 100 μl of phage solution with titers of 1 x 10^12, 2.5 x 10^11, 6 x 10^10, 1.5 x 10^10, and 3.75 x 10^9 pfu/ml was used per well, respectively. The phage library was set as the negative phage control. Following an incubation at 37°C for 2 h and six washes with TBST (0.5% Tween-20), 200 μl of diluted HRP-conjugated anti-M13 monoclonal antibody solution was added for 1 h at rt. Following six washes with TBST, 100 μl of substrate TMB solution was added for 10 minutes at rt. 50 μl of 2 M sulfuric acid solution (H2SO4) was added to terminate the reaction and absorbance at 450nm was measured. OD450nm values 2.1 times above the negative control value were considered positive.

[5] = test system: SjTGR; test: Inhibition of SjTGR enzyme activity (TrxR, GR and Grx overall); format: biochemical, Schistosoma japonicum; conditions: JIPDys1 from phage screening
Protocol: as §1, §2

| Sequence | Percentage of inhibition of Grx [1] [%] | Percentage of inhibition of GR [2] [%] | Percentage of inhibition of TrxR [3] [%] | Binding to SjTGR (ELISA OD450nm) [4] | Inhibition of SjTGR activity [5] | Binding capacity compared with the other phages ([4]; ELISA, phage titers 3.75 x 10^9 to 1.0 x 10^12 pfu/ml) |
| --- | --- | --- | --- | --- | --- | --- |
| KHMHWHPPALNT [JIPDys4, M13 phage clone from Ph.D.-12 library displaying peptide …] | 1.23 | 1.50 | 0.73 | bound to SjTGR |  |  |
| LHAETRSAMHRT [JIPDys2, M13 phage clone from Ph.D.-12 library displaying peptide …] | 25.64 | 69.43 | 45.24 | bound to SjTGR |  |  |
| WPHNWWPHFKVK [JIPDys1, M13 phage clone from Ph.D.-12 library displaying peptide …] | 53.56 | 80.80 | 59.04 | bound to SjTGR | more than 50% | strongest binding capacity among those phages |
| YTMPSLTLYAMG [JIPDys3, M13 phage clone from Ph.D.-12 library displaying peptide …] | 43.02 | 20.88 | 54.72 | bound to SjTGR |  |  |
